Results as given in patent US4992470A, “Method of enhancing immune response of mammals” (Iowa State University Research Foundation, Inc., priority 1990, dated 1991).

Tests used:
isolated lymphocytes = assay: HMB effects on lymphocyte function in lambs (ex vivo mitogen-stimulated blastogenesis after feeding)
Protocol: Animals and Experimental Design. Three sets of twin lambs were housed individually in fiberglass pens. Animals were randomly assigned to control or HMB diets, using a standard basal diet with and without 0.05% HMB.
Blood Sampling and Lymphocyte Preparation. In the first experiment, animals were bled for lymphocyte blastogenesis assays and T-cell subset analysis 38, 45, and 52 days after dietary treatments began. Blood (50 ml) was collected, aseptically, via jugular venepuncture into 10 ml acid-citrate-dextrose anticoagulant (44 g trisodium citrate, 16 g citric acid and 50 g dextrose per 1 of triple-distilled water). Blood was centrifuged, the buffy coat removed, and 1 volume of buffy coat was diluted with 0.5 volume of plasma which was added to 2 volumes of Sepracell-MN (Sepratech Corporation, Oklahoma City, Okla.). After further centrifugation at 1500 x g for 25 min, the mononuclear layer was removed and washed twice with Hanks' balanced salt solution (HBSS; Gibco, Grand Island, N.Y.) by centrifuging at 150 x g for 15 min. The remaining white blood cells were resuspended in HBSS, and the total number of white blood cells was determined by using an automated cell counter (Coulter Electronics, Hialeah, Fla.). The concentration of the cells was adjusted to 1×20^6 " cells/ml with HBSS.
Lymphocyte Blastogenesis Determinations. Blastogenesis assays were performed on isolated lymphocytes by using a 3-d culture procedure as described previously. Briefly, isolated lymphocytes were cultured in microtiter plates with 2×10^5 " cells in 0.15 ml of culture medium/well. Culture medium consisted of RPMI media-1640 (Gibco, Grand Island, N.Y.) containing 15% heat-inactivated fetal bovine serum and 1% antibiotic-antimycotic solution (Gibco, Grand Island, N.Y.). Unstimulated and mitogen-stimulated cultures were assayed in triplicate. Mitogens used were phytohemagglutinin-P (PHA), concanavalin A (ConA) and pokeweed mitogen (PWM). PHA was purchased from Difco Laboratories, Detroit, MI; ConA from Miles Laboratories, Elkhart, IN; and PWM from Gibco, New York, N.Y. Microtiter plates were incubated at 37° C. in a humidified 5% CO2 atmosphere. After 48 h, 0.25 uCi of ^3 H-thymidine (New England Nuclear, Boston, Mass.) was added to each well. Eighteen hours later, the cultures were harvested onto glass-fiber filters with an automated sample harvester (Flow Laboratories, Rockville, Mo.), filters were placed in 10 ml CytoScint scintillation solution (ICN Biomedicals, Irvine, CA), and radioactivity was counted in a liquid scintillation counter. This procedure is similar to that described by Kuhlman, et al., J. Nutr., 118:1564-1569.

[1] = system: Bordetella broncheseptica; assay: Pigs: nasal degeneration scores; type: in vivo; settings: HMB-fed pigs
Excerpt: (§1) Twelve specific pathogen free (SPF) pigs 4-5 weeks of age were distributed into two groups, each being blocked by gender and litter. All pigs were fed approximately 4% of their body weight of a commercially purchased starter ration. Pigs were penned individually and allowed free access to water.
(§2) Diets were supplemented with one of two dietary treatments: Control (limestone)(n=6) and HMB (n=6). Dietary treatments were fed at 0.05% of the body weight. HMB was synthesized by the method of Example 1. One week later, pigs were injected with 5 ml/30 kg body weight of a 20% suspension of sheep red blood cells (SRBC) subcutaneously.
(§3) The iliac lymph nodes, liver, spleen, and gastrocnemius muscle were removed from the carcass and weighed. The nasal cavity was examined for evidence of Bordetella broncheseptica infection that will result in nasal turbinate degeneration. Nasal degeneration was scored as to severity with 0 indicating no lesions and the highest score, 3, corresponding to […] degeneration.

[2] = system: sheep red blood cells (SRBC); assay: Pigs: antibody titers against sheep red blood cells (agglutination assay); type: in vivo; settings: HMB-fed pigs; control 11.6; * p < .05
Excerpt: as §1, §2
(§4) Fourteen days post dietary treatments, all pigs were challenged via intratracheal inoculation with 5 ml of a ground lung suspension. The suspension was derived from pig pneumonic tissue obtained from a pig experimentally inoculated with Mycoplasma hyopneumoniae. […] Titers to Mycoplasma hyopneumoniae were determined using a serum complement fixation assay. At necropsy, the extent of macroscopic pneumonia lesions was recorded and samples from all pigs were submitted for histopathology to assay microscopic lesions. Lung and bronchi samples were cultured and evaluated for the presence of Mycoplasma species (i.e., M. hyorhinis, M. hyosynoviae, and M. hyopneumoniae) and other easily isolated bacteria (i.e., bordetella, pasteurella, and hemophilus).

[3] = Stability of HMB (and KIC) in the rumen: incubation in diluted rumen fluid; type: in vitro ADME, steer
Protocol: Rumen fluid was collected from a fistulated steer. After filtration and dilution (1:4) with an artificial saliva, 25ml of the solution was added to 50ml plastic tubes. Each tube was fitted with a one-way valve to allow gases to escape while not allowing air into the tube. Each tube was then gassed with C02 and incubated at 39° C. After 30 min a solution of KIC or HMB was added to the tube in concentrations to simulate what would be present in the rumen of an animal consuming .05% of the diet as KIC or HMB. It was estimated that a 50uM concentration would be attained in this case. At timed intervals 50ul samples of this rumen fluid were taken and analyzed for KIC and HMB.

[4] = Pigs: organ weights at necropsy; type: in vivo; settings: HMB-fed pigs
Excerpt: as §1, §2, §3

[5] = Stability of HMB (and KIC) in the rumen: incubation in diluted rumen fluid; type: in vitro ADME, steer; settings: as far as is known; general statement, oral administration to ruminants
[6] = system: Mycoplasma species and other easily isolated bacteria; assay: Pigs: bacteria cultured from bronchi; type: in vivo; settings: HMB-fed pigs
Excerpt: as §1, §2, §4

[7] = Before Treatment (baseline of HMB group)

Structure (SMILES): CC(C)(O)CC(=O)O [HMB, β-hydroxy-β-methyl butyric acid]
- Decays Per Min of 3H Thymidine Incorporated into Isolated Lymphocytes, PHA Stimulation (isolated lymphocytes; After Treatment, diet with 0.05% HMB, control 15,000): 18,000 Decays Per Min
- Decays Per Min of 3H Thymidine Incorporated into Isolated Lymphocytes, PWM Stimulation (isolated lymphocytes; After Treatment, diet with 0.05% HMB, control 18,000): 25,000 Decays Per Min
- Decays Per Min of 3H Thymidine Incorporated into Isolated Lymphocytes, ConA Stimulation (isolated lymphocytes; After Treatment, diet with 0.05% HMB, control 19,000): 21,000 Decays Per Min
- Decays Per Min of 3H Thymidine Incorporated into Isolated Lymphocytes, ConA Stimulation (isolated lymphocytes; [7]): 41,000 Decays Per Min
- Decays Per Min of 3H Thymidine Incorporated into Isolated Lymphocytes, PHA Stimulation (isolated lymphocytes; [7]): 23,000 Decays Per Min
- Decays Per Min of 3H Thymidine Incorporated into Isolated Lymphocytes, PWM Stimulation (isolated lymphocytes; [7]): 21,000 Decays Per Min
- Change in 3H Thymidine incorporation, PWM Stimulation (isolated lymphocytes; after minus before treatment, change in control -14,000): +4,000 Decays Per Min
- Change in 3H Thymidine incorporation, PHA Stimulation (isolated lymphocytes; after minus before treatment, change in control -22,000): -5,000 Decays Per Min
- Change in 3H Thymidine incorporation, ConA Stimulation (isolated lymphocytes; after minus before treatment, change in control -29,000): -20,000 Decays Per Min
- Effect on decline in lymphocyte function (in words) (isolated lymphocytes; lambs, 0.05% HMB diet): tended to effect the decline in lymphocyte function
- Nasal degeneration due to bordetella infection (in words) [1]: significant decrease in nasal degeneration due to bordetella infection
- Severity of nasal turbinate lesions (in words) [1]: less severe lesions of the nasal turbinates
- Nasal degeneration scores (0 = no lesion) ([1]; highest score 3 = moderate degeneration, control 1.6, * p < .05): 0.8
- Red blood cell titers (dilution) day 10-15 [2]: 15.5 dilution
- Stability in rumen environment (in words) [3]: quite stable in a rumen environment
- KIC / HMB in rumen fluid ([3]; 0 min after addition, rumen fluid diluted 1:4, 39° C., initial concentration of KIC was estimated): 60 µM
- KIC / HMB in rumen fluid ([3]; 15 min after addition, rumen fluid, 39° C.): 76 µM
- KIC / HMB in rumen fluid ([3]; 30 min after addition, rumen fluid, 39° C.): 81 µM
- KIC / HMB in rumen fluid ([3]; 60 min after addition, rumen fluid, 39° C.): 71 µM
- KIC / HMB in rumen fluid ([3]; 240 min after addition, rumen fluid, 39° C.): 74 µM
- KIC / HMB in rumen fluid ([3]; 480 min after addition, rumen fluid, 39° C.): 74 µM
- Size of spleen and iliac lymph node (in words) [4]: smaller in HMB-fed animals
- Iliac lymph node weight ([4]; control 3.8, * p < .05): 3.3 g
- Spleen weight ([4]; control 101): 94 g
- Rumen destruction (in words) [5]: not subject to significant rumen destruction
- Bacteria cultured in the bronchi (in words) [6]: fewer bacteria cultured in the bronchi
- Bronchi, presence of bacteria ([6]; control 1.1): 0.8
